Measured values from US20050203191A1, “1-Aminocyclohexane derivatives for the treatment of agitation and other behavioral disorders, especially those associated with alzheimer's disease” (priority 2004, published 2005).

Tested on: patients suffering from moderate to severe AD
Experiment: MZ-9605 (Therapy Example 1): 28-week double-blind placebo-controlled trial of memantine 20 mg/day
Type: in vivo, human
Experimental: Patients suffering from moderate to severe AD were randomized to placebo or 20 mg memantine daily for 28 weeks. Primary efficacy variables were the Clinician's Interview-Based Impression of Change plus caregiver input (CIBIC-Plus) and the Alzheimer's Disease Cooperative Study Activities of Daily Living Inventory modified for severe dementia (ADCS-ADL). Secondary efficacy variables included the Severe Impairment Battery (SIB) and Neuropsychiatric Inventory (NPI). Treatment differences between baseline and endpoint were assessed. Incomplete observations were imputed using the most recent previous observation (last observation carried forward—LOCF). Results were also analyzed using only the observed values, where missing values were not replaced (Observed Cases (OC) analysis). AD patients (N=252), (67 percent female, mean age=76 years), were randomized from 32 U.S. centers. Of these, 181 completed the study (72 percent) and were evaluated at week 28. Seventy-one patients discontinued treatment prematurely (42 placebo, 29 memantine). Change on the CIBIC-Plus favored memantine over placebo (P=0.06 LOCF, P=0.03 OC) Memantine-treated patients deteriorated less than placebo treated patients on the ADCS-ADL (P=0.02 LOCF, P=0.003 OC) and the SBI (P=<0.001 LOCF, P=0.002 OC). NPI change scores at week 28 were statistically significant. Depending on the type of analysis, this benefit was found in two domains: agitation (p=0.008 LOCF) and delusion (p=0.04 LOCF) or for agitation, only (p=0.023 OC). The finding for agitation also occurred in the dichotomised analyses for memantine-treated patients with and without behavioural symptoms at baseline. […] This study supports the antiglutamatergic treatment approach in moderate to severe AD, a phase associated with patient distress and caregiver burden, for which other treatments are not available and the treatment of behavioral disorders associated therewith.
Community residing patients at least 50 years old with probable AD according to Diagnostic and Statistical Manual of Mental Disorders (DSM-IV) (American Psychiatric Association. Diagnostic and statistical manual of mental disorders. 4th ed. Washington: American Psychiatric Association; 1994.) and National Institute of Neurologic and Communicative Disorders and Stroke and AD and Related Disorders Association (NINCDS-ADRDA) criteria (McKhann G, Drachman D, Folstein M, Katzman R, Price D, Stadlan E M, Clinical diagnosis of Alzheimer's disease: report of the NINCDS-ADRDA Work Group under the auspices of Department of Health and Human Services Task Force on Alzheimer's Disease. Neurology 1984;34:939-44) were recruited. Eligibility criteria included: baseline Mini-Mental State Examination (MMSE) scores of 3-14 (Folstein M F, Folstein, S E, McHugh, P R, Mini-mental state. A practical method for grading the cognitive state of patients for the clinician. J Psychiat Res 1975;12:189-98.), stage 5 or 6 on the Global Deterioration Scale (GDS) (Reisberg B, Ferris S H, de Leon M J, Crook T, The Global Deterioration Scale for assessment of primary degenerative dementia. Am J Psychiatry 1982;139:1136-9.), and a stage of 6a or greater on the Functional Assessment Staging (FAST) (Sclan S G, Reisberg B, Functional assessment staging (FAST) in Alzheimer's disease: reliability, validity, and ordinality. Int Psychogeriatr 1992;4 Suppl 1:55-69.) instrument, signifying the presence of dementia-related deficits in the ability to perform one or more basic activities of daily living. Patients had reliable caregivers and recent (within 12 months) computed tomography (CT) or magnetic resonance imaging (MRI). […]

[1] = MZ-9605, week 28, ITT LOCF, NPI total score <75%
[2] = MZ-9605, week 28, ITT LOCF, NPI total score ≧=75% (top quartile)
[3] = MZ-9605, week 28, ITT LOCF, antipsychotics usage “YES” (N = n)
[4] = MZ-9605, week 28, ITT LOCF, antipsychotics usage “YES” (N = y)
[5] = MZ-9605, week 28, ITT LOCF, baseline NPI agitation score <4
[6] = MZ-9605, week 28, ITT LOCF, baseline NPI agitation score ≧=4
[7] = MZ-9605, week 28, ITT LOCF, overall

## CC12CC3CC(C)(C1)CC(N)(C3)C2 [memantine, 1-amino-3,5-dimethyl adamantane]
20 mg/day, 28 weeks
  adverse events: not associated with significant adverse events
  patients who experienced an adverse event of agitation: 18%
20 mg/day, prior to week 28
  premature discontinuations due to adverse events: 10%
ITT, OC
  Change (baseline to week 28) in NPI domain Aberr. Mot. Behavior: 0.01
  Change (baseline to week 28) in NPI domain Agitation/Aggression: −0.01
  Change (baseline to week 28) in NPI domain Anxiety: 0.51
  Change (baseline to week 28) in NPI domain Apathy/Indifference: −0.25
  Change (baseline to week 28) in NPI domain App./Eating Change: 0.00
  Change (baseline to week 28) in NPI domain Delusions: −0.38
  Change (baseline to week 28) in NPI domain Depression/Dysphoria: 0.00
  Change (baseline to week 28) in NPI domain Disinhibition: −0.53
  Change (baseline to week 28) in NPI domain Elation/Euphoria: 0.18
  Change (baseline to week 28) in NPI domain Hallucinations: 0.47
  Change (baseline to week 28) in NPI domain Irritabililty/Lability: 0.04
  Change (baseline to week 28) in NPI domain Night-time Behavior: 0.05
[1]
  ADCS-ADL (change) LS Mean Diff., MEM v. PLA: 1.48
  ADCS-ADL (change) mean: −3.4
  CIBIC-PLUS Raw Mean Diff., MEM v. PLA: −0.2
  CIBIC-PLUS mean: 4.4
  SIB (change) LS Mean Diff., MEM v. PLA: 3.36
  SIB (change) mean: −5.6
[2]
  ADCS-ADL (change) LS Mean Diff., MEM v. PLA: −3.47
  ADCS-ADL (change) mean: −2.1
  CIBIC-PLUS Raw Mean Diff., MEM v. PLA: −0.4
  CIBIC-PLUS mean: 4.6
  SIB (change) LS Mean Diff., MEM v. PLA: 13.3
  SIB (change) mean: 0.03
[3]
  ADCS-ADL (change) LS Mean Diff., MEM v. PLA: 1.9
  ADCS-ADL (change) mean: −2.7
  CIBIC-PLUS Raw Mean Diff., MEM v. PLA: −0.22
  CIBIC-PLUS mean: 4.47
  SIB (change) LS Mean Diff., MEM v. PLA: 5.1
  SIB (change) mean: −4.1
[4]
  ADCS-ADL (change) LS Mean Diff., MEM v. PLA: 0.9
  ADCS-ADL (change) mean: −5.5
  CIBIC-PLUS Raw Mean Diff., MEM v. PLA: −0.29
  CIBIC-PLUS mean: 4.62
  SIB (change) LS Mean Diff., MEM v. PLA: 10.6
  SIB (change) mean: −2.5
[5]
  ADCS-ADL (change) LS Mean Diff., MEM v. PLA: 1.18
  ADCS-ADL (change) mean: −3.5
  CIBIC-PLUS Raw Mean Diff., MEM v. PLA: −0.2
  CIBIC-PLUS mean: 4.5
  SIB (change) LS Mean Diff., MEM v. PLA: 3.75
  SIB (change) mean: −4.8
[6]
  ADCS-ADL (change) LS Mean Diff., MEM v. PLA: 4.97
  ADCS-ADL (change) mean: −1.2
  CIBIC-PLUS Raw Mean Diff., MEM v. PLA: −0.5
  CIBIC-PLUS mean: 4.4
  SIB (change) LS Mean Diff., MEM v. PLA: 14.05
  SIB (change) mean: −0.5
MZ-9605, week 28, ITT LOCF, baseline NPI agitation score ≧=4, listed as MEM
  ADCS-ADL (change) LS Mean Diff., MEM v. PLA: −4.97
[7]
  ADCS-ADL (change) LS Mean Diff., MEM v. PLA: 2.06
  ADCS-ADL (change) LS mean: −3.02
  CIBIC-PLUS LS mean: 4.48
  CIBIC-PLUS Raw Mean Diff., MEM v. PLA: −0.25
  SIB (change) LS Mean Diff., MEM v. PLA: 5.91
  SIB (change) LS mean: −3.93
At endpoint (LOCF)
  CIBIC-Plus ratings, mean difference memantine v. placebo: 0.3
endpoint, LOCF
  ADCS-ADL total score, mean difference memantine v. placebo: −2.1
  SIB total score, mean difference memantine v. placebo: −2.1
Week 28, OC
  ADCS-ADL total score, mean difference memantine v. placebo: −3.4
  CIBIC-Plus ratings, mean difference memantine v. placebo: 0.4
  SIB total score, mean difference memantine v. placebo: −3.4
